Results reported in patent publication US9975885B2, “Broad-spectrum non-covalent coronavirus protease inhibitors” (priority 2016, dated 2018).

What was measured:
HKU1-3CL^pro = HKU1-3CL^pro (Human coronavirus HKU1 (isolate N1) (HCoV-HKU1), UniProt P0C6X2); experiment: biochemical
HKU9-3CL^pro = HKU9-3CL^pro (Bat coronavirus HKU9 (BtCoV) (BtCoV/HKU9), UniProt P0C6W5); format: biochemical
SARS-3CL^pro = SARS-3CL^pro (Severe acute respiratory syndrome coronavirus (SARS-CoV), UniProt P0C6X7); format: biochemical
HKU4-3CL^pro = HKU4-3CL^pro (Bat coronavirus HKU4 (BtCoV) (BtCoV/HKU4/2004), UniProt P0C6W3); format: biochemical
Sequence of HKU4-3CL^pro (P0C6W3 3292-3597 limits assumed): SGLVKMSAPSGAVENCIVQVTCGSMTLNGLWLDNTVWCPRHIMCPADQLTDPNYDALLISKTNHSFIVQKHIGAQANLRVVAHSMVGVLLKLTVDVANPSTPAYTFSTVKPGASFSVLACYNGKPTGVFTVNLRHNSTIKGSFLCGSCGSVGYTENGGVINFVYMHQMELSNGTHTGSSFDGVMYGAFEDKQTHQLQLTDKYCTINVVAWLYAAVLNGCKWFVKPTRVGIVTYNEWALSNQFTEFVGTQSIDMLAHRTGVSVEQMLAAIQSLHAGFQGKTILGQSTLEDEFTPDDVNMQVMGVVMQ

NL63-3CL^pro = NL63-3CL^pro (Human coronavirus NL63 (HCoV-NL63), UniProt P0C6X5); experiment: biochemical
Sequence of NL63-3CL^pro (P0C6X5 2940-3242 limits assumed): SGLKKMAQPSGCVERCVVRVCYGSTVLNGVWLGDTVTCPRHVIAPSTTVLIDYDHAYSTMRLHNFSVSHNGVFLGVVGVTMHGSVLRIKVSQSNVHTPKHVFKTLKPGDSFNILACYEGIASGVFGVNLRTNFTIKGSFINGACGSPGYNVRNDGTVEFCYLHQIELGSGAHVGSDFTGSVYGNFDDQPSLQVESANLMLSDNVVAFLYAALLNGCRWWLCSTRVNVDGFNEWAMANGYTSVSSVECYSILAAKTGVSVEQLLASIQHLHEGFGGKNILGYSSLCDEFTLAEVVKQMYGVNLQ

PEDV-3CL^pro = PEDV-3CL^pro (Porcine epidemic diarrhea virus (strain CV777) (PEDV), UniProt P0C6Y4); experiment: biochemical; details: for inhibition at 100 µM: read-out: inhibition of PEDV-3CL^pro
Sequence of PEDV-3CL^pro (P0C6Y4 2998-3299 limits assumed): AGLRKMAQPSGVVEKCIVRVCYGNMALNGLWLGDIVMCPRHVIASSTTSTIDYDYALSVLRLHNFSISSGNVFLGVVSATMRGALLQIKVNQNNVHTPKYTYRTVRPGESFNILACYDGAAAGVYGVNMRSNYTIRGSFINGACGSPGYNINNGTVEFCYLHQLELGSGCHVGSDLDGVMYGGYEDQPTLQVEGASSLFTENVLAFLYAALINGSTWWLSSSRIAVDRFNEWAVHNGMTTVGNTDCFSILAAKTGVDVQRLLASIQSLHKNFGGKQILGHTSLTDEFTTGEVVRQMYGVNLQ

FIPV-3CL^pro = FIPV-3CL^pro (Feline coronavirus (strain FIPV WSU-79/1146) (FCoV), UniProt Q98VG9); experiment: biochemical
Sequence of FIPV-3CL^pro (Q98VG9 2904-3205 limits assumed): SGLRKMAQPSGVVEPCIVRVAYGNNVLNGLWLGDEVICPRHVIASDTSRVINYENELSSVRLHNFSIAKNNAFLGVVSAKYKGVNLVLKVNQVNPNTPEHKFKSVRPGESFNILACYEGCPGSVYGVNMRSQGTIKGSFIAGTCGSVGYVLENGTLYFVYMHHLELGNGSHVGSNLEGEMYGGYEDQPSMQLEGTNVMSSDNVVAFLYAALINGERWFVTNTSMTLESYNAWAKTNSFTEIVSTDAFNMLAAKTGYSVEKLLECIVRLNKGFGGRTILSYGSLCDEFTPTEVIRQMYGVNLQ

HKU5-3CL^pro = HKU5-3CL^pro (Bat coronavirus HKU5 (BtCoV) (BtCoV/HKU5/2004), UniProt P0C6W4); format: biochemical
Sequence of HKU5-3CL^pro (P0C6W4 3339-3644 limits assumed): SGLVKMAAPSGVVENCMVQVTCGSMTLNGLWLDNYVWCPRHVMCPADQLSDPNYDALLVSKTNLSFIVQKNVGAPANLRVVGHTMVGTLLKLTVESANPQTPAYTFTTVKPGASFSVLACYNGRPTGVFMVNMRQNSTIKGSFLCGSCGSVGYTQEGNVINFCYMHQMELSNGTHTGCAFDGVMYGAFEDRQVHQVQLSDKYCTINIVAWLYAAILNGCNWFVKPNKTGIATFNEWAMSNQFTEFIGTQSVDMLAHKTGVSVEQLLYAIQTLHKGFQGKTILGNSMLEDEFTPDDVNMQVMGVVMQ

OC43-3CL^pro = OC43-3CL^pro (Human coronavirus OC43 (HCoV-OC43), UniProt P0C6X6); format: biochemical
Sequence of OC43-3CL^pro (P0C6X6 3247-3549 limits assumed): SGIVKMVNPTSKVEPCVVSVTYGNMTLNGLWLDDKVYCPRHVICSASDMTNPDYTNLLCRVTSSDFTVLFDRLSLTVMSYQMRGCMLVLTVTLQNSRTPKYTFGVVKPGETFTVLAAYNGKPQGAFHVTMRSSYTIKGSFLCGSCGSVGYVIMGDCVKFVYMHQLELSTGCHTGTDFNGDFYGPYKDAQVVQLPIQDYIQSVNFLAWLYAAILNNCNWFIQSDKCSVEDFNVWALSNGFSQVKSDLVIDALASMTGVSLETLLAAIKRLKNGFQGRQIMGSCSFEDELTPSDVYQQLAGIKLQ

[1] = test system: Ten CoV 3CL^pro's (FIPV-, PEDV-, NL63-, HKU1-, OC43-, SARS-, HKU4-, HKU5-, HKU9-, IBV-3CL^pro); format: biochemical, coronaviruses (α-, β-, γ-CoV)
IBV-3CL^pro = IBV-3CL^pro (Avian infectious bronchitis virus (strain Beaudette) (IBV), UniProt P0C6Y1); format: biochemical
Sequence of IBV-3CL^pro (P0C6Y1 2780-3086 limits assumed): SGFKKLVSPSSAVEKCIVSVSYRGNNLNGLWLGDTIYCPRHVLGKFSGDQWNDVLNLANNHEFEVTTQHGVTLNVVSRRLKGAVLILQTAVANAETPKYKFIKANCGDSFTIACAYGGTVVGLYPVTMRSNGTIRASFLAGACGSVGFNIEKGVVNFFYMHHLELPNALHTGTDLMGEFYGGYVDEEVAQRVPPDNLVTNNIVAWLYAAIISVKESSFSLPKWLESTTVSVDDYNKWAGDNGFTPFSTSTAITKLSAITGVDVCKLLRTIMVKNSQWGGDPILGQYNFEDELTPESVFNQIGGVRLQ

Sequence of HKU1-3CL^pro (P0C6X2 3335-3637 limits assumed): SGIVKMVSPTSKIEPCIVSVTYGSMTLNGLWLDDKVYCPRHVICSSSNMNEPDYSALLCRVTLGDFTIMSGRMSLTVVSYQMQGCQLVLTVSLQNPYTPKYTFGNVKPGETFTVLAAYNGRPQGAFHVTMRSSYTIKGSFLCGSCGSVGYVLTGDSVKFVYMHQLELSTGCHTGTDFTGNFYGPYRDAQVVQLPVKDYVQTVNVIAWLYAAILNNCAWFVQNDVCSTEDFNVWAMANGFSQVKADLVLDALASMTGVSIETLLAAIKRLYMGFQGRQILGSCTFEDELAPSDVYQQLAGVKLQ
Sequence of HKU9-3CL^pro (P0C6W5 3104-3409 limits assumed): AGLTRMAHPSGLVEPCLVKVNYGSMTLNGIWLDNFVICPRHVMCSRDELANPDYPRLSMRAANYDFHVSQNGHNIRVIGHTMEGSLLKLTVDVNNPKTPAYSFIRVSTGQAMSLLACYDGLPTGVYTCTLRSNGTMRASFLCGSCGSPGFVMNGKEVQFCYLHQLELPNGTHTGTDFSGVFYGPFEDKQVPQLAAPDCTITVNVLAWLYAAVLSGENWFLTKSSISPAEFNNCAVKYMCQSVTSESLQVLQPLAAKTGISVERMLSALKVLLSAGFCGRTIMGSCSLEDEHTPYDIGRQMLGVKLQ

Row | Compound | IC50 (HKU1-3CL^pro) [µM] | IC50 (HKU9-3CL^pro) [µM] | IC50 (SARS-3CL^pro) [µM] | IC50 (HKU4-3CL^pro) [µM] | IC50 (NL63-3CL^pro) [µM] | IC50 (PEDV-3CL^pro) [µM] | IC50 (FIPV-3CL^pro) [µM] | IC50 (HKU5-3CL^pro) [µM] | IC50 (OC43-3CL^pro) [µM] | inhibition of NL63-3CL^pro (NL63-3CL^pro) | Gini Coefficient [1] | Score (performance metric score) [1] | inhibition of γ-CoV IBV-3CL^pro (IBV-3CL^pro) | inhibition at 100 µM (NL63-3CL^pro; read-out: inhibition of NL63-3CL^pro) [%] | inhibition at 100 µM (PEDV-3CL^pro) [%] | inhibition at 100 µM (FIPV-3CL^pro; read-out: inhibition of FIPV-3CL^pro) [%] | inhibition at 100 µM (HKU1-3CL^pro; read-out: inhibition of HKU1-3CL^pro) [%] | number of 3CL^pro's inhibited [1]
1 | CC(C)CNC(=O)C(c1cccnc1)N(C(=O)c1c[nH]cn1)c1ccc(C(C)(C)C)cc1 (stereo not drawn) [Compound 43, N-(4-(tert-butyl)phenyl)-N-(2-(isobutylamino)-2-oxo-1-(pyridin-3-yl)ethyl)-1H-imidazole-4-carboxamide] | 5.8 ± 0.8 | 10.5 ± 1.1 | 5.9 ± 0.5 | 4.6 ± 0.3 | 13.5 ± 0.8 | 1.6 ± 0.1 | 16.2 ± 1.3 | 5.8 ± 0.8 | 12.4 ± 1 |  |  |  |  |  |  |  |  | 
2 | CC(C)Cc1ccc(N(C(=O)c2c[nH]cn2)C(C(=O)NC(C)(C)C)c2cccnc2)cc1 (stereo not drawn) [Compound 38, N-(2-(tert-butylamino)-2-oxo-1-(pyridin-3-yl)ethyl)-N-(4-isobutylphenyl)-1H-imidazole-4-carboxamide] | 15.4 ± 1.5 | 18 ± 3.3 | 7 ± 0.6 | 7.7 ± 0.7 |  | 15.5 ± 1.8 | 61.1 ± 13.9 | 10.9 ± 0.9 | 24.4 ± 3.1 | not tolerated | 0.21 | 4.5 |  |  |  |  |  | 
3 | CC(C)(C)NC(=O)C(c1ccsc1)N(C(=O)Cn1nnc2ccccc21)c1ccc(NC(=O)C2CC2)cc1 (stereo not drawn) [Compound 2P, reference compound] |  |  |  | 3.8 ± 0.3 |  |  |  | 3.5 ± 0.5 | 24.4 ± 3.5 |  | 0.29 | 8.5 | no compound, including the parent compounds 1P, 2P, and 3P, was found to be capable of inhibiting | ≤ 50 | ≤ 50 | ≤ 50 |  | 
4 | CC(C)(C)c1ccc(N(C(=O)c2c[nH]cn2)C(C(=O)NC2CCCC2)c2cccnc2)cc1 (stereo not drawn) [Compound 47, N-(4-(tert-butyl)phenyl)-N-(2-(cyclopentylamino)-2-oxo-1-(pyridin-3-yl)ethyl)-1H-imidazole-4-carboxamide] | 3.4 ± 0.4 | 6.4 ± 0.5 | 1.7 ± 0.2 | 1.9 ± 0.1 | 6.3 ± 0.5 | 0.7 ± 0.03 | 6.9 ± 0.5 | 2.5 ± 0.2 | 7.7 ± 0.8 |  |  |  |  |  |  |  |  | 
5 | CC(C)C(=O)Nc1ccc(N(C(=O)Cn2nnc3ccccc32)C(C(=O)NCc2ccccc2)c2cccc(F)c2)cc1 (stereo not drawn) [Compound 1P, reference compound] |  |  | 1.6 ± 0.2 |  |  |  | 6.7 ± 0.7 | 1.2 ± 0.1 | 6.9 ± 0.9 |  | 0.31 | 5.7 | no compound, including the parent compounds 1P, 2P, and 3P, was found to be capable of inhibiting |  | ≤ 50 |  | ≤ 50 | 
6 | CC(C)(C)NC(=O)C(c1cccnc1)N(C(=O)c1c[nH]cn1)c1ccc(C2CCC2)cc1 (stereo not drawn) [Compound 40, N-(2-(tert-butylamino)-2-oxo-1-(pyridin-3-yl)ethyl)-N-(4-cyclobutylphenyl)-1H-imidazole-4-carboxamide] | 6.6 ± 1.2 | 18.2 ± 2.2 | 9.9 ± 1.2 | 9.6 ± 0.7 |  | 11.2 ± 1.5 | 27 ± 3.1 | 8.7 ± 1.2 | 13.7 ± 1.3 |  | 0.16 | 3.6 |  |  |  |  |  | eight of ten
7 | CC(C)(C)NC(=O)C(c1cccnc1)N(C(=O)c1c[nH]cn1)c1ccc(C(C)(C)C)cc1 (stereo not drawn) [Compound 3P, reference compound] |  |  |  |  |  |  |  |  |  |  | 0.13 | 2.7 | no compound, including the parent compounds 1P, 2P, and 3P, was found to be capable of inhibiting |  |  |  |  | 
8 | CC(C)(C)c1ccc(N(C(=O)c2c[nH]cn2)C(C(=O)NCc2ccccc2)c2cccnc2)cc1 (stereo not drawn) [Compound 48, N-(2-(benzylamino)-2-oxo-1-(pyridin-3-yl)ethyl)-N-(4-(tert-butyl)phenyl)-1H-imidazole-4-carboxamide] | 8 ± 1.5 | 40.4 ± 8.7 | 6.6 ± 0.8 | 26.1 ± 2.1 | 26.4 ± 4.2 | 3.4 ± 0.4 | 19 ± 1.7 | 24.8 ± 2.9 | 46.5 ± 8 |  | 0.17 | 3.5 |  |  |  |  |  | 
9 | CC(C)(C)CNC(=O)C(c1cccnc1)N(C(=O)c1c[nH]cn1)c1ccc(C(C)(C)C)cc1 (stereo not drawn) [Compound 44, N-(4-(tert-butyl)phenyl)-N-(2-(neopentylamino)-2-oxo-1-(pyridin-3-yl)ethyl)-1H-imidazole-4-carboxamide] | 9 ± 0.8 | 9.1 ± 0.8 | 6.3 ± 0.5 | 4.2 ± 0.2 | 8.2 ± 0.5 | 1.4 ± 0.1 | 12.5 ± 0.8 | 3.6 ± 0.3 | 15.6 ± 1 |  |  |  |  |  |  |  |  | 
10 | CC(C)(C)c1ccc(N(C(=O)c2c[nH]cn2)C(C(=O)NC2CC2)c2cccnc2)cc1 (stereo not drawn) [Compound 46, N-(4-(tert-butyl)phenyl)-N-(2-(cyclopropylamino)-2-oxo-1-(pyridin-3-yl)ethyl)-1H-imidazole-4-carboxamide] | 7.8 ± 1.2 |  | 11.8 ± 1.6 | 11.2 ± 1 | 16.8 ± 2.9 | 4.3 ± 0.4 | 43.9 ± 6.1 | 8.9 ± 0.9 | 24.5 ± 4.3 |  |  | 4.0 |  |  |  |  |  | 
